In PMC8533089, “Characteristics of Neurokinin-3 Receptor and Its Binding Sites by Mutational Analysis” (Biology, 2021):
Where two headings read alike, the source gives them in different places.

Experiments:
11-KT plasma levels = experiment: 14-day in vivo experiment: plasma 11-KT (ELISA); design: species or system adult male tilapia (Oreochromis niloticus); conditions: 500 µg/kg BW IP every 48 h, 14 days; n = 6
Protocol: (§1) Adult male tilapia (BW 87.29 ± 26.1 g; gonado-somatic index (GSI 0.21% ± 0.36%) were IP injected with SB-222200 (500 µg/kg BW in 25% DMSO) and saline with 25% DMSO as a control every 48 h during a 14-day period. Blood was sampled every 48 h. Milt volume was collected from 6 fish from each group 7 and 14 days after the first injection, generally according to [55].
11-KT levels were determined by ELISA, according to [52], using acetylcholine-esterase as a label. The anti- 11-KT was donated by Dr. D.E. Kime (Sheffield, UK). All samples were analyzed in duplicate, and for each ELISA plate, a separate standard curve was run. The lower limits of detection were 0.93 for 11-KT. The intra- and inter-assay coefficients of variance were less than 7%. Steroid levels in the plasma, determined by ELISA, were validated by verifying that serial dilutions were parallel to the standard curve.

[1] = test system: plasma GH and gonadotropins; experiment: 14-day in vivo experiment: plasma GH and gonadotropins (ELISA); design: species or system adult male tilapia (Oreochromis niloticus); conditions: 500 µg/kg BW IP every 48 h, 14 days, versus control
Protocol: The levels of FSH, LH and GH in the plasma were measured by specific competitive enzyme-linked immunosorbent assay (ELISA), developed for tilapia, based on recombinant gonadotropins or GH that were created by using the yeast Pichia pastoris. For the ELISAs, we used primary antibody antisera against GH [51], FSHβ [52], or against rtLHβ [53], and rtFSHβα [52], rtLHβ [53] or tiGH for the standard curves. Sensitivity for the plasma measurements were 15.84 pg/mL for LH, 0.24 pg/mL for FSH and 30.0 pg/mL for GH. The inter-assay coefficient of variation (CV) was 14.8, 12.5, and 13.0%, while intra-assay CV was 7.2, 8.0, and 8.0% for LH, FSH and GH, respectively.
as §1

LH secretion = conditions: OVX ewes, micro-implants in the ARC; cited from earlier work
Text: The effect of NKB/NKF peptides on gonadotropin secretion in fish is already well established. The first indication that NKB is widely expressed in fish species and has a stimulatory reproductive effect was shown in zebrafish, goldfish, and tilapia. […] Osetanant re ...

[2] = test system: testicular cell composition; experiment: 14-day in vivo experiment: testicular histology and cell composition; design: species or system adult male tilapia (Oreochromis niloticus)
Protocol: as §1
Testes were sampled for histology at 14 days, and testicular cell composition was analyzed. Testes were fixed for 24 h, after which a portion was removed (~5 mm in length) from the center of the larger right testicular lobe for histological processing. Samples were rinsed in distilled water, dehydrated in an alcohol series, cleared in xylene, embedded in paraffin, serially sectioned at 4 μm in the transverse plane, and stained with hematoxylin and eosin using standard histological techniques. Photomicrographs were then taken (4× objective) of 3 randomly chosen sections from each individual for analysis of testicular cell composition. Randomly generated points (n = 50) were overlaid on each photograph (CPCe software), and the cell type underneath each crosshair point was identified. A minimum of 50 points was necessary to adequately determine the percentage of cell types. Cell types were identified based on previous descriptions in this and other related teleost species reviewed in [57], and the following cells were quantified: spermatogonia, spermatids, and spermatozoa (mature sperm). Each cell type was then expressed as a percentage of the total, and averaged across the 3 sections to obtain a mean for each individual.

tiTac3Ra = tiTac3Ra (Oreochromis niloticus, UniProt A0A075QPN8); experiment: CRE-Luc antagonist assay, wild-type receptor, COS-7; type: cell-based, tilapia (Oreochromis niloticus); conditions: for IC50: antagonist 0.001–1000 μM added 10 min before peptide
Sequence of tiTac3Ra (A0A075QPN8 entry or part of it): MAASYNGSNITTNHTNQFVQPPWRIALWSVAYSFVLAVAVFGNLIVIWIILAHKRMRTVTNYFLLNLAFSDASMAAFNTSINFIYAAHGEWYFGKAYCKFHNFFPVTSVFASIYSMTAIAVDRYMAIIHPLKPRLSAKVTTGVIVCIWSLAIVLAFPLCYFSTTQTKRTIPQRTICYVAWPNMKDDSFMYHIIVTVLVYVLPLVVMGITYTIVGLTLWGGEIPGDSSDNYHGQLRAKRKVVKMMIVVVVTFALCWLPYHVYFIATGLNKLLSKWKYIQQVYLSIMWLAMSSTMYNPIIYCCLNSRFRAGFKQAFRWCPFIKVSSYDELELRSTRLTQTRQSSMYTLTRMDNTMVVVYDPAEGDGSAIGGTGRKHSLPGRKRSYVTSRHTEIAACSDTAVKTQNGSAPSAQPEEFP
Protocol: In order to study the signaling pathways of the mutant tiTac3Ra, the entire coding regions of tiTac3Ra (GenBank accession no. KF471674), and both of the mutant receptors were inserted into pcDNA3.1 (Invitrogen, Massachusetts, United States). We used a sensitive luciferase (LUC) reporter gene assay. […] Transient transfection, cell procedures and stimulation protocols followed the procedures previously described. Briefly, 3 μg of each construct, together with 3 μg of a luciferase reporter plasmid were transiently transfected into COS-7 cells (American Type Culture Collection, Manassas, VA, USA). Forty-eight hours after transfection, cells transfected with Tac3Ra plasmid fused with GFP were applied with an Hoechst dye (Invitrogen, Massachusetts, United States; diluted 1:1000) in order to mark nuclei in the culture for transfection analysis.
Non-peptide molecules, SB-222200 (Sigma, Merck, Darmstadt, Germany) and Osanetant (Axon Medchem, Reston, VA, USA), known to antagonize mammalian NK3R [49] were studied for their ability to antagonize tiTac3Ra, which was activated with a fixed dose of the native ligands (10 nM tiNKB or tiNKF), combined with increasing doses of the antagonists (0.001–1000 μM). The antagonists were added 10 min prior to the addition of the peptides. IC50 values were calculated from concentration response curves by means of computerized nonlinear curve-fitting with Prism version 9 software (GraphPad, San Diego, CA, USA). All experiments were repeated at least 3 times using cells from independent transfections, each performed in triplicate.
NKB antagonists, SB-222200 (Figure 7A) and Osanetant (Figure 7B) were added in increasing concentrations (0.001–1000 μM) to transfected COS-7 that expressed tiTac3Ra. Ten minutes after the induction of the antagonists, the ligand, tiNKB or tiNKF (10 nM) was added to the media.

milt volume = experiment: 14-day in vivo experiment: milt volume / sperm production; design: species or system adult male tilapia (Oreochromis niloticus); conditions: 500 µg/kg BW IP every 48 h; days 7 and 14; six fish per group; versus control
Protocol: as §1

CC[C@H](NC(=O)c1c(C)c(-c2ccccc2)nc2ccccc12)c1ccccc1 [SB-222200]
11-KT plasma levels (11-KT plasma levels): significantly delayed the rise of 11-KT levels in plasma
Plasma GH and gonadotropins [1]: did not change significantly
LH secretion (LH secretion): disrupted LH secretion
number of spermatozoa ([2]; 500 µg/kg BW IP every 48 h, day 14): significantly reduced the number of spermatozoa
other cells, % of cells ([2]; 500 µg/kg BW IP every 48 h, day 14, Figure 9E, *): 48.38%
spermatid, % of cells ([2]; 500 µg/kg BW IP every 48 h, day 14, control 23.2%, significant): 10%
spermatozoa, % of cells ([2]; 500 µg/kg BW IP every 48 h, day 14, control 23.78%, significant): 6.63%
spermatogonia, % of cells ([2]; 500 µg/kg BW IP every 48 h, day 14, control 32.87%): 35%
spermatogonia, count ([2]; day 14, Figure 9E): 280
other cells, count ([2]; day 14, Figure 9E, *): 387
spermatid, count ([2]; day 14, Figure 9E, *): 80
spermatozoa, count ([2]; day 14, Figure 9E, *): 53
IC50 (tiTac3Ra; 10 nM tiNKB, COS-7, CRE-Luc, read-out: IC50 versus tiNKB): 84.1 µM
IC50 (tiTac3Ra; 10 nM tiNKF, COS-7, CRE-Luc, read-out: IC50 versus tiNKF): 37.1 µM
Emax (tiTac3Ra; COS-7, CRE-Luc, 10 nM tiNKB or tiNKF, read-out: luciferase activity reduced to % of maximal response): 50%
maximum response rate compared with Osanetant (tiTac3Ra; Figure 7C,D): higher maximum response rate than Osanetant
inhibitory effect on Tac3Ra activation (tiTac3Ra; in words): strong inhibitory effect
reduction of receptor activity (in words) (tiTac3Ra; restated in Discussion): reduced the receptor activity by half
sperm production (milt volume) (milt volume): retained a low sperm production after 7 and 14 days compared to that of the control group
